What was measured:
trypsin [1] = test: Inhibition of trypsin-induced cleavage of fluorescent casein, EnzChek protease assay (cations and salt forms, Examples 1 and 2); assay type: biochemical
Method: The inhibition of trypsin-induced cleavage of a fluorescent casein peptide was measured using the EnzChek™ protease assay kit, following manufacturer's instructions (EnzChek™ Protease Assay Kits Product Information, Revised; Molecular Probes, Eugene Oreg.). Briefly, test materials at different concentrations were prepared in 1×phosphate buffered saline (PBS, pH 7.4). Trypsin working solution (Sigma, St. Louis, Mo., unit/mL) was prepared in digestion buffer provided in the assay kit. Stock solution of BODIPY FL casein (trypsin substrate, mg/mL) was prepared by adding 0.2 mL to the substrate vials (provided in kit), and the final substrate working solution (10 microgram/mL) was prepared by dilution in digestion buffer (pH 7.8). […] Each experiment was performed in three replicates.

trypsin [2] = target: T1, trypsin (Bos taurus, UniProt P00760); details: low concentrations, around 0.001 M; cited from earlier work
T1 sequence (P00760 24-246): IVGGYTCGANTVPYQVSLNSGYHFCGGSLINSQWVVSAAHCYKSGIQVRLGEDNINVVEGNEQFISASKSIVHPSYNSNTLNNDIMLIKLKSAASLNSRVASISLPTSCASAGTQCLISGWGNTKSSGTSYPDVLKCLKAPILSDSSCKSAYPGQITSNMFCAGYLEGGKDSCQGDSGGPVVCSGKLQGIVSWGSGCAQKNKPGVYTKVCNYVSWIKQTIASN

trypsin [3] = test: EnzChek trypsin inhibition assay, mixtures of talc with divalent cation salts (Example 3); assay type: biochemical; details: for With Talc trypsin inhibition activities (%): all tested materials at 0.1% (g/mL); for Hypothetically calculated additive value of salt and Talc: Table 4
Method: The objective of the following experiment was to determine whether and to what extent adding a divalent cation to talc inhibited trypsin activity in an in vitro assay. The inhibition of trypsin-induced cleavage of a fluorescent casein peptide was measured using the EnzChek™ protease assay kit, following manufacturer's instructions (EnzChek™ Protease Assay Kits Product Information, Revised; Molecular Probes, Eugene Oreg.). […] Trypsin working solution (Sigma, St. Louis, Mo., unit/mL) was prepared in digestion buffer provided in the assay kit. Stock solution of BODIPY FL casein (trypsin substrate, mg/mL) was prepared by adding 0.2 mL to the substrate vials (provided in kit), and the final substrate working solution (10 microgram/mL) was prepared by dilution in digestion buffer (pH 7.8). Following incubation of the trypsin, with or without the test materials, with the BODIPY fluorescent casein substrate, at room temperature for one hour, fluorescence was measured (excitation 485 nm /emission 530 nm) using a SpectraMax microtiter plate reader (Molecular Devices Corporation, Sunnyvale, Calif.) and Softmax Pro software (Molecular Devices Corporation). Each experiment was performed in three replicates.

trypsin [4] = test: EnzChek trypsin inhibition assay, zinc oxide/acid mixtures and zinc oxide containing formulations (Example 4); assay type: biochemical; details: for % trypsin inhibitory activity: Table 5
Method: The objective of the following experiment was to determine whether and to what extent adding an acid to a formulation containing zinc oxide had on inhibition of trypsin activity in an in vitro assay. The inhibition of trypsin-induced cleavage of a fluorescent casein peptide was measured using the EnzChek™ protease assay kit, following manufacturer's instructions (EnzChek™ Protease Assay Kits Product Information, Revised; Molecular Probes, Eugene Oreg.). Briefly, mixtures of zinc oxide and acid at different concentrations were prepared in 1×PBS (pH 7.4) and their pH was recorded as listed in the Tables 5-8. Trypsin working solution (Sigma, St. Louis, Mo., unit/mL) was prepared in digestion buffer provided in the assay kit. Stock solution of BODIPY FL casein (trypsin substrate, mg/mL) was prepared by adding 0.2 mL to the substrate vials (provided in kit), and the final substrate working solution (10 microgram/mL) was prepared by dilution in digestion buffer (pH 7.8). Following incubation of the trypsin, with or without the test materials (50 μl), with the BODIPY fluorescent casein substrate, at room temperature for one hour, fluorescence was measured (excitation 485 nm/emission 530 nm) using a SpectraMax microtiter plate reader (Molecular Devices Corporation, Sunnyvale, Calif.) and Softmax Pro software (Molecular Devices Corporation). Each experiment was performed in three replicates.
For preparations, samples were diluted in 1×PBS at 1:10 ratio and subjected to centrifugation at 13,200 rpm for 1 min using Eppendorf Centrifuge (Model 5415D, Eppendorf AG, Hamburg, Germany) to remove the solid formulation ingredients. The supernatants (50 μl) were used for trypsin inhibitory activity analyses as described above. For preparations, samples were diluted in 10, or 20 or 40% ethanol and subjected to centrifugation at 13,200 rpm for 1 min using Eppendorf Centrifuge (Model 5415D, Eppendorf AG, Hamburg, Germany) to remove the solid formulation ingredients. The supernatants (50 μl) were used for trypsin inhibition assay. Possible effects of ethanol solution (10, 20 or 40% ethanol) on trypsin inhibition activity were tested in the same study and found no significant impact.

O.O.[Cl][Cu][Cl] [(II) chloride dihydrate]
% trypsin inhibitory activity (trypsin [1]; Table 1, 0.01% (g/mL)): 64.98%
% trypsin inhibitory activity (trypsin [1]; Table 1, 0.10% (g/mL)): 99.34%
% trypsin inhibitory activity (trypsin [1]; Table 1, 1% (g/mL)): 108.34%

[Ag+] [Ag+]
inhibition of the esterase activity of trypsin (trypsin [2]): inhibited

CC(=O)[O-].CC(=O)[O-].O.[Ca+2] [Calcium acetate monohydrate]
% synergistic activity relative to hypothetic additive value (trypsin [3]; Table 3, 0.1% (g/mL)): 3.10%
With Talc trypsin inhibition activities (%) (trypsin [3]; Table 3): 24.6%

[Ca+2].[Cl-].[Cl-] [Calcium chloride]
% synergistic activity relative to hypothetic additive value (trypsin [3]; Table 3, 0.1% (g/mL)): −0.26%
With Talc trypsin inhibition activities (%) (trypsin [3]; Table 3): 26.43%

[Cu+2] [Cu++]
inhibition of the esterase activity of trypsin (trypsin [2]): inhibited

[Hg+2] [Hg++]
inhibition of the esterase activity of trypsin (trypsin [2]): inhibited

O.O.O.O.[Cl][Fe][Cl] [Iron (II) chloride tetrahydrate]
% synergistic activity relative to hypothetic additive value (trypsin [3]; Table 3, 0.1% (g/mL)): −12.35%
With Talc trypsin inhibition activities (%) (trypsin [3]; Table 3): 64.53%
% trypsin inhibitory activity (trypsin [1]; Table 1, 0.01% (g/mL)): −3.24%
% trypsin inhibitory activity (trypsin [1]; Table 1, 0.10% (g/mL)): 64.84%
% trypsin inhibitory activity (trypsin [1]; Table 1, 1% (g/mL)): 112.23%

[Cl-].[Li+] [Lithium chloride, reference compound]
% trypsin inhibitory activity (trypsin [1]; Table 1, 0.01% (g/mL)): 8.71%
% trypsin inhibitory activity (trypsin [1]; Table 1, 0.10% (g/mL)): 7.56%
% trypsin inhibitory activity (trypsin [1]; Table 1, 1% (g/mL)): −0.56%

CC(=O)[O-].CC(=O)[O-].O.O.O.O.[Mg+2] [Magnesium acetate tetrahydrate]
Salt alone trypsin inhibition activities (%) (trypsin [3]; Table 3, 0.1% (g/mL)): 0.83%
With Talc trypsin inhibition activities (%) (trypsin [3]; Table 3): 17.83%
% trypsin inhibitory activity (trypsin [1]; Table 2, 0.10% weight (g/mL)): −3.09%

[Cl-].[Cl-].[Mg+2] [Magnesium chloride]
With Talc trypsin inhibition activities (%) (trypsin [3]; Table 3): 20.05%
Hypothetically calculated additive value of salt and Talc (trypsin [3]; 0.1% MgCl2, 1% Talc): 12.44%
Hypothetically calculated additive value of salt and Talc (trypsin [3]; 0.5% MgCl2, 1% Talc): 22.93%
Hypothetically calculated additive value of salt and Talc (trypsin [3]; 1% MgCl2, 1% Talc): 25.55%
trypsin inhibitory activity (in words) (trypsin [3]; talc and magnesium chloride alone or combined): moderate to low levels

O=[N+]([O-])[O-].[Ag+] [Silver nitrate, reference compound]
% trypsin inhibitory activity (trypsin [1]; Table 1, 0.01% (g/mL)): −2.43%
% trypsin inhibitory activity (trypsin [1]; Table 1, 0.10% (g/mL)): 2.91%
% trypsin inhibitory activity (trypsin [1]; Table 1, 1% (g/mL)): 5.37%

[Cl-].[Na+] [Sodium chloride, reference compound]
% trypsin inhibitory activity (trypsin [1]; Table 1, 0.01% (g/mL)): −7.57%
% trypsin inhibitory activity (trypsin [1]; Table 1, 0.10% (g/mL)): −4.15%
% trypsin inhibitory activity (trypsin [1]; Table 1, 1% (g/mL)): 10.88%

[Cl-].[Cl-].[Sr+2] [Strontium chloride]
% trypsin inhibitory activity (trypsin [1]; Table 1, 0.01% (g/mL)): 6.51%
% trypsin inhibitory activity (trypsin [1]; Table 1, 0.10% (g/mL)): 11.78%
% trypsin inhibitory activity (trypsin [1]; Table 1, 1% (g/mL)): 47.05%

CC(=O)[O-].CC(=O)[O-].[Zn+2] [Zinc acetate dihydrate]
% synergistic activity relative to hypothetic additive value (trypsin [3]; Table 3, 0.1% (g/mL)): −15.70%
With Talc trypsin inhibition activities (%) (trypsin [3]; Table 3): 60.18%

[Cl-].[Cl-].[Zn+2] [Zinc chloride]
% synergistic activity relative to hypothetic additive value (trypsin [3]; Table 3, 0.1% (g/mL)): −13.01%
With Talc trypsin inhibition activities (%) (trypsin [3]; Table 3): 77.96%
% trypsin inhibitory activity (trypsin [1]; Table 1, 0.01% (g/mL)): 42.99%
% trypsin inhibitory activity (trypsin [1]; Table 1, 0.10% (g/mL)): 88.51%
% trypsin inhibitory activity (trypsin [1]; Table 1, 1% (g/mL)): 105.87%
% trypsin inhibitory activity (trypsin [1]; Table 2, 0.01% weight (g/mL)): 41.25%
% trypsin inhibitory activity (trypsin [1]; Table 2, 0.10% weight (g/mL)): 87.69%
% trypsin inhibitory activity (trypsin [1]; Table 2, 1% weight (g/mL)): 98.75%

CC(O)C(=O)[O-].CC(O)C(=O)[O-].[Zn+2] (stereo not drawn) [Zinc lactate]
% trypsin inhibitory activity (trypsin [1]; Table 2, 0.01% weight (g/mL)): 23.01%
% trypsin inhibitory activity (trypsin [1]; Table 2, 0.10% weight (g/mL)): 36.36%
% trypsin inhibitory activity (trypsin [1]; Table 2, 1% weight (g/mL)): 87.95%

[O]=[Zn] [ZnO, zinc oxide]
% trypsin inhibitory activity (trypsin [4]; 0.1% ZnO with 0.01% acetic acid, pH 7.28): 1.85 +/− 1.34%
% trypsin inhibitory activity (trypsin [4]; 0.1% ZnO with 0.05% acetic acid, pH 6.03): 49.16 +/− 1.43%
% trypsin inhibitory activity (trypsin [4]; 0.1% ZnO, no acetic acid, pH 7.61): −2.6 +/− 2.76%
% trypsin inhibitory activity (trypsin [4]; 1% ZnO with 0.01% acetic acid, pH 7.85): 15.82 +/− 1.68%
% trypsin inhibitory activity (trypsin [4]; 1% ZnO with 0.05% acetic acid, pH 6.08): 58.19 +/− 0.73%
% trypsin inhibitory activity (trypsin [4]; 1% ZnO, no acetic acid, pH 8.07): 5.40 +/− 1.24%
trypsin inhibitory activity (in words) (trypsin [4]; conclusion from Tables 5-8): minimal protease activity

CC(=O)O [acetic acid]
% trypsin inhibitory activity (trypsin [4]; no ZnO, 0.01% acetic acid, pH 6.84): −11.18 +/− 2.61%
% trypsin inhibitory activity (trypsin [4]; no ZnO, 0.05% acetic acid, pH 4.75): 25.81 +/− 2.13%

Zinc gluconate
% trypsin inhibitory activity (trypsin [1]; Table 2, 0.01% weight (g/mL)): 25.33%
% trypsin inhibitory activity (trypsin [1]; Table 2, 0.10% weight (g/mL)): 40.93%
% trypsin inhibitory activity (trypsin [1]; Table 2, 1% weight (g/mL)): 85.52%

From US20130004588A1, “DIVALENT CATION CONTAINING COMPOSITIONS AND METHODS FOR TREATING AND/OR PREVENTING ENZYMATIC IRRITATION” (priority 2011, published 2013)
